# Measured values taken from PubChem BioAssay AID2060895 (Molecular Pharmacology Branch, DTP, NCI, 2025).
# pIC50: −log10 of the molar value.
# Test system: PDC 899932-113-R3-J6 complex spheroid viability
# Assay: Anticancer human tumor 899932-113-R3-J6-PDC patient-derived melanoma cell line growth inhibition [RAS]
# Conditions: for pIC50: curve of first compound; for viability, T/C: stronger effect = lower value
# Text: RAS pathway inhibitors in Combinations in Complex Spheroids
# A high-throughput screen of multi-cell type tumor spheroids was designed to identify active combinations of RAS pathway inhibitors and targeted small molecules. Complex spheroids include a stromal component modeled by human endothelial cells (HUVEC) and fibroblasts modeled by human mesenchymal stem cells (MSCs). The concentration ranges selected for each drug and investigational agent were based upon clinically achievable concentrations if the clinical Cmax of the agent was known.
# Compounds. The drugs and investigational agents: abemaciclib (NSC768073), cobimetinib (NSC768068), divarasib (GDC6063, NSC841802), docetaxel (NSC628503), GDC-1971 (RLY-1971, NSC841576), gemcitabine (NSC613327), inavolisib (NSC800729), ipatasertib (NSC767898), KB-0742 (NSC834161), MRTX-1133 (NSC836407), osimertinib (NSC779217), RMC-4630 (NSC839698), RMC-6236 (NSC851965), RMC-6291 (NSC852671), Ro-3306 (NSC812927), sapanisertib (NSC764658), SN-38 (NSC673596), staurosporine (NSC755774), SY5609 (NSC837396), and tovorafenib (DAY101, NSC766906), were obtained from the National Cancer Institute (NCI) Developmental Therapeutics Program Chemical Repository. The FDA-approved anticancer drug set is available from the NCI Developmental Therapeutics Program. […] The stock solutions were prepared in dimethyl sulfoxide (DMSO, Sigma-Aldrich, St. Louis, MO, cat. D2650) at 800-fold the tested concentration and stored at -70 degrees C prior to their use. All drugs and investigational agents were tested over a range starting from a high concentration at or near the clinical Cmax and decreasing in half-log increments. If the clinical Cmax for an agent had not been determined, the highest concentration tested was 10 microM.
# Cell Culture. All cells were maintained in an incubator at 37 degrees C and 5% CO2 with 95% humidity. The PDC lines were cultured according to standard operating procedures established by the NCI PDMR. All PDCs were thawed and cultured in Matrigel-coated flasks prepared with a working solution of 1X Ham's F-12 nutrient mix, without supplementation (Invitrogen, Waltham, MA, cat. 11765054), 100 U/mL penicillin-streptomycin (Invitrogen, cat. 15140122), and 2.5% Matrigel (Corning Inc., Corning, NY, cat. 354248) for the first three passages. The 362531-283-R-J2-PDC and 782815-120-R-J1-PDC lines were cultured in 6C/Colon 1B media, which includes advanced DMEM/F-12 (Thermo Fisher Scientific, cat. 12634028), 10 mM HEPES (Thermo Fisher Scientific, cat. 15630080), 1X GlutaMAX supplement (Thermo Fisher Scientific, cat. 35050061), 0.1 mg/mL primocin (InvivoGen, San Diego, CA, cat. ant-pm-2), 10% defined fetal bovine serum, heat inactivated (HyClone Laboratories Inc., Logan, UT, cat. SH30070.03HI), 50% L-WRN conditioned media (ATCC, cat. CRL-3276), 1.25 mM N-Acetyl-L-cysteine (Sigma-Aldrich, cat. A9165), 10 mM nicotinamide (Sigma-Aldrich, cat. N0636), 1X B-27 supplement (Thermo Fisher Scientific, cat. 17504044), 1X N-2 supplement (Thermo Fisher Scientific, cat. 17502048), 50 ng/mL human EGF (Thermo Fisher Scientific, cat. PHG0311), and 10 microM Y-27632 dihydrochloride (Tocris Bioscience, cat. 1254). The K12877-001-R-J1-PDC line was cultured in 6I media, which includes all 6C/Colon 1B media plus 10 ng/mL human FGF-10 (PeproTech, cat. 100-26), 1 ng/mL human FGF-2 (PeproTech, cat. 100-18B), 1 µM prostaglandin E2 (Tocris Bioscience, cat. 2296), […] hydrocortisone (Sigma-Aldrich, cat. H4001), and […] bovine insulin (Sigma-Aldrich, cat. I6634). The K86415-001-R-J1-PDC line was cultured in 6D media, which includes all 6C/Colon 1B media components minus the L-WRN conditioned media. The 485176-168-R4-J1-PDC was cultured in PANC media, which includes all 6C/Colon 1B media plus 100 ng/mL human FGF-10 (PeproTech, cat. 100-26), 500 nM SB-431542 (Selleckchem, cat. S1067), and 10 nM gastrin (Tocris Bioscience, cat. 3006). […]
# [1] = second compound 0.0316 µM, first compound 0.0316 µM
# [2] = second compound 0.0316 µM, first compound 0.1 µM
# [3] = second compound 0.0316 µM, first compound 0.316 µM
# [4] = second compound 0.0316 µM, first compound 1 µM
# [5] = second compound 0.0316 µM, first compound 3.16 µM
# [6] = second compound 0.0316 µM, first compound 10 µM
# [7] = second compound 0.1 µM, first compound 0.0316 µM
# [8] = second compound 0.1 µM, first compound 0.1 µM
# [9] = second compound 0.1 µM, first compound 0.316 µM
# [10] = second compound 0.1 µM, first compound 1 µM
# [11] = second compound 0.1 µM, first compound 3.16 µM
# [12] = second compound 0.1 µM, first compound 10 µM
# [13] = second compound 0.316 µM, first compound 0.0316 µM
# [14] = second compound 0.316 µM, first compound 0.1 µM
# [15] = second compound 0.316 µM, first compound 0.316 µM
# [16] = second compound 0.316 µM, first compound 1 µM
# [17] = second compound 0.316 µM, first compound 3.16 µM
# [18] = second compound 0.316 µM, first compound 10 µM
# [19] = second compound 1 µM, first compound 0.0316 µM
# [20] = second compound 1 µM, first compound 0.1 µM
# [21] = second compound 1 µM, first compound 0.316 µM
# [22] = second compound 1 µM, first compound 1 µM
# [23] = second compound 1 µM, first compound 3.16 µM
# [24] = second compound 1 µM, first compound 10 µM
# [25] = second compound 3.16 µM, first compound 0.0316 µM
# [26] = second compound 3.16 µM, first compound 0.1 µM
# [27] = second compound 3.16 µM, first compound 0.316 µM
# [28] = second compound 3.16 µM, first compound 1 µM
# [29] = second compound 3.16 µM, first compound 3.16 µM
# [30] = second compound 3.16 µM, first compound 10 µM
# [31] = second compound 10 µM, first compound 0.0316 µM
# [32] = second compound 10 µM, first compound 0.1 µM
# [33] = second compound 10 µM, first compound 0.316 µM
# [34] = second compound 10 µM, first compound 1 µM
# [35] = second compound 10 µM, first compound 3.16 µM
# [36] = second compound 10 µM, first compound 10 µM
# 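For viability, T/C in this document: spheroids exposed to agents for seven days before readout; 100% = DMSO vehicle control wells.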
smiles,measurement,setting,value
CC1(O)CCCC1n1c(=O)c(C(F)F)cc2cnc(NC3CCN(S(C)(=O)=O)CC3)nc21 (stereo unspecified) + C#Cc1c(F)ccc2cc(O)cc(-c3ncc4c(N5CC6CCC(C5)N6)nc(OCC56CCCN5CC(F)C6)nc4c3F)c12,pIC50,second compound 0.0316 µM,5.61
same,pIC50,second compound 0.1 µM,5.59
same,pIC50,second compound 0.316 µM,5.49
same,pIC50,second compound 1 µM,5.46
same,pIC50,second compound 3.16 µM,5.52
same,pIC50,second compound 10 µM,5.51
same,"viability, T/C",[1],105%
same,"viability, T/C",[2],81.1%
same,"viability, T/C",[3],70.8%
same,"viability, T/C",[4],69.9%
same,"viability, T/C",[5],54.9%
same,"viability, T/C",[6],21.6%
same,"viability, T/C",[7],96.2%
same,"viability, T/C",[8],86.9%
same,"viability, T/C",[9],63.6%
same,"viability, T/C",[10],62.3%
same,"viability, T/C",[11],62%
same,"viability, T/C",[12],24.5%
same,"viability, T/C",[13],99.2%
same,"viability, T/C",[14],93%
same,"viability, T/C",[15],75.9%
same,"viability, T/C",[16],65.3%
same,"viability, T/C",[17],56.6%
same,"viability, T/C",[18],25.5%
same,"viability, T/C",[19],102%
same,"viability, T/C",[20],89.7%
same,"viability, T/C",[21],76.3%
same,"viability, T/C",[22],70%
same,"viability, T/C",[23],58.4%
same,"viability, T/C",[24],24.7%
same,"viability, T/C",[25],114%
same,"viability, T/C",[26],97.8%
same,"viability, T/C",[27],69.8%
same,"viability, T/C",[28],72.2%
same,"viability, T/C",[29],62.4%
same,"viability, T/C",[30],22.2%
same,"viability, T/C",[31],114%
same,"viability, T/C",[32],89%
same,"viability, T/C",[33],77.2%
same,"viability, T/C",[34],68.8%
same,"viability, T/C",[35],64.8%
same,"viability, T/C",[36],11.3%
CCC(CC)c1cc(NC2CCC(N)C2)n2nccc2n1 (stereo unspecified) + C#Cc1c(F)ccc2cc(O)cc(-c3ncc4c(N5CC6CCC(C5)N6)nc(OCC56CCCN5CC(F)C6)nc4c3F)c12,pIC50,second compound 0.0316 µM,5.77
same,pIC50,second compound 0.1 µM,5.79
same,pIC50,second compound 0.316 µM,5.78
same,pIC50,second compound 1 µM,5.76
same,pIC50,second compound 3.16 µM,5.75
same,pIC50,second compound 10 µM,5.76
same,"viability, T/C",[1],96.8%
same,"viability, T/C",[2],91.5%
same,"viability, T/C",[3],103%
same,"viability, T/C",[4],91.5%
same,"viability, T/C",[5],0.88%
same,"viability, T/C",[6],0.24%
same,"viability, T/C",[7],104%
same,"viability, T/C",[8],104%
same,"viability, T/C",[9],92.9%
same,"viability, T/C",[10],87.3%
same,"viability, T/C",[11],0.78%
same,"viability, T/C",[12],0.23%
same,"viability, T/C",[13],107%
same,"viability, T/C",[14],93.9%
same,"viability, T/C",[15],98.5%
same,"viability, T/C",[16],88.3%
same,"viability, T/C",[17],0.84%
same,"viability, T/C",[18],0.9%
same,"viability, T/C",[19],112%
same,"viability, T/C",[20],112%
same,"viability, T/C",[21],120%
same,"viability, T/C",[22],95.2%
same,"viability, T/C",[23],1.22%
same,"viability, T/C",[24],0.22%
same,"viability, T/C",[25],103%
same,"viability, T/C",[26],107%
same,"viability, T/C",[27],107%
same,"viability, T/C",[28],100%
same,"viability, T/C",[29],0.97%
same,"viability, T/C",[30],0.24%
same,"viability, T/C",[31],116%
same,"viability, T/C",[32],105%
same,"viability, T/C",[33],105%
same,"viability, T/C",[34],94.2%
same,"viability, T/C",[35],0.5%
same,"viability, T/C",[36],0.27%
CCN1CCN(Cc2ccc(Nc3ncc(F)c(-c4cc(F)c5nc(C)n(C(C)C)c5c4)n3)nc2)CC1 + C#Cc1c(F)ccc2cc(O)cc(-c3ncc4c(N5CC6CCC(C5)N6)nc(OCC56CCCN5CC(F)C6)nc4c3F)c12,pIC50,second compound 0.0316 µM,6.30
same,pIC50,second compound 0.1 µM,6.28
same,pIC50,second compound 0.316 µM,6.28
same,pIC50,second compound 1 µM,6.31
same,pIC50,second compound 3.16 µM,6.28
same,pIC50,second compound 10 µM,6.51
same,"viability, T/C","second compound 0.0316 µM, first compound 0.00316 µM",105%
same,"viability, T/C","second compound 0.0316 µM, first compound 0.01 µM",97.1%
same,"viability, T/C",[1],98.9%
same,"viability, T/C",[2],83.4%
same,"viability, T/C",[3],69.8%
same,"viability, T/C",[4],23.9%
same,"viability, T/C","second compound 0.1 µM, first compound 0.00316 µM",109%
same,"viability, T/C","second compound 0.1 µM, first compound 0.01 µM",102%
same,"viability, T/C",[7],92.9%
same,"viability, T/C",[8],87%
same,"viability, T/C",[9],68.9%
same,"viability, T/C",[10],28.3%
same,"viability, T/C","second compound 0.316 µM, first compound 0.00316 µM",116%
same,"viability, T/C","second compound 0.316 µM, first compound 0.01 µM",92.8%
same,"viability, T/C",[13],94%
same,"viability, T/C",[14],92.7%
same,"viability, T/C",[15],69%
same,"viability, T/C",[16],26.5%
same,"viability, T/C","second compound 1 µM, first compound 0.00316 µM",115%
same,"viability, T/C","second compound 1 µM, first compound 0.01 µM",112%
same,"viability, T/C",[19],98.7%
same,"viability, T/C",[20],81.6%
same,"viability, T/C",[21],67.1%
same,"viability, T/C",[22],27.8%
same,"viability, T/C","second compound 3.16 µM, first compound 0.00316 µM",126%
same,"viability, T/C","second compound 3.16 µM, first compound 0.01 µM",112%
same,"viability, T/C",[25],100%
same,"viability, T/C",[26],86.2%
same,"viability, T/C",[27],71.4%
same,"viability, T/C",[28],28.5%
same,"viability, T/C","second compound 10 µM, first compound 0.00316 µM",125%
same,"viability, T/C","second compound 10 µM, first compound 0.01 µM",113%
same,"viability, T/C",[31],100%
same,"viability, T/C",[32],84.4%
same,"viability, T/C",[33],48.4%
same,"viability, T/C",[34],3.09%
